Laboratory results taken from patent US20250127857A1, “A COMPOSITION COMPRISING IL-36 AND/OR IL-18 FOR USE IN TREATING OCULAR DISORDERS” (THE PROVOST, FELLOWS, FOUNDATION SCHOLARS, & THE OTHER …, priority 2021, published 2025).

B1: IL-1α: human IL-1α (R&D systems) (protein, UniProt P01583 113-271, looked up)
Interleukin-1 alpha: SAPFSFLSNVKYNFMRIIKYEFILNDALNQSIIRANDQYLTAAALHNLDEAVKFDMGAYKSSKDDAKITVILRISKTQLYVTAQDEDQPVLLKEMPEIPKTITGSETNLLFFWETHGTKNYFTSVAHPNLFIATKQDYWVCLAGGPPSITDFQILENQA

How the values were obtained:
[1] = system: cldn5, tricellulin, ZO-1 and VE-cadherin mRNA in HRMEC; experiment: Real-time qPCR of junction components; type: cell-based, human; settings: 100 ng/ml IL-36β or 10 μM RepSox, 24 hours
Source text: […]

HRMEC [2] = experiment: Wound healing (scratch) assay in HRMEC, IL-18; type: cell-based, human; settings: IL-18, VEGF, bFGF each 50 ng/ml, closure expressed as % closure
Method: FIG. 16 illustrates HRMEC migration in response to IL-18 and IL-1α stimulation, wherein confluent HRMEC monolayers were scratched with a pipette tip and treated with IL-18 (50 ng/ml) or IL-1α (10 ng/ml) along with bFGF (50 ng/ml) or VEGF (50 ng/ml) as positive controls, wherein images were taken immediately following scratch (0 hrs) and at 4, 8 and 24 hours following scratch, wherein images were analysed using ImageJ imaging software, wherein data are presented as mean±SEM of 6 separate experiments in triplicate, wherein data were analysed using 2way ANOVA with Dunnett's multiple comparison test. (*p<0.05, *p<0.01, ****p<0.0001);
Cells were seeded on to a 12-well plate and grown until they reached confluency. 24 hours prior to the scratch, culture medium was replaced with 0.5% Serum media without supplements for 24 hours to induce cell quiescence. Cell monolayers were scratched once down the centre of the well using a p200 pipette tip and washed once with warmed DPBS to remove debris then replaced with 0.5% serum supplemented media with experimental treatments. Images were acquired using an Olympus IX51 inverted microscope with Cell^A imaging software (Olympus). Images were taken at baseline immediately following scratch and at suitable timepoints for up to 24 (HRMECs) or 48 hours (BMVECs). The area within the scratch was quantified using ImageJ software, and each timepoint was normalised to its baseline and expressed as % closure.

HRMEC [3] = experiment: MTS assay of HRMEC proliferation with VEGF and IL-18; type: cell-based, human; settings: VEGF alone
Method: FIG. 17 illustrates HRMEC proliferation in response to VEGF is enhanced with IL-18 pre-treatment, wherein HRMECs were treated with increasing concentrations of VEGF alone or with a 24 hour pre-treatment of IL-18 at 10, 100 or 1000 ng/ml, wherein increasing VEGF induced an increase in cell proliferation which was enhanced following IL-18 treatment;
Cell viability was assessed using the CellTiter 96 AQueous One Solution cell proliferation MTS assay (Promega) as per the manufacturer's instructions. Cell monolayers were treated for times indicated where treatment supplemented media was then removed and incubated with 20 μl of CellTiter 96 AQueous One Solution in 100 μl of complete growth medium in a humidified incubator at 37° C. with 5% CO2for 1-4 hours. The absorbance of each well was measured at 490 nm using a SynergyMX plate reader (Biotek, Gen5™).

occludin = experiment: Occludin expression in HRMEC (qPCR and immunoblotting); type: cell-based, human; settings: for expression of tight junction protein occludin: single cytokine
Method: FIG. 18 illustrates IL-18 drives expression of tight junction protein occludin and inhibits VEGF depletion of occluding, wherein HRMECS were treated with either VEGF, IL-18 or IL-1α for the timepoints indicated (top panel) and cells were prepared for RNA isolation and qPCR with expression of occluding measured, wherein HRMECs were treated with VEGF, IL-18 or IL-1 or combinations of these cytokines and cells were prepared for immunoblotting for expression of occludin and b-actin (lower panels);
Following transfer, membranes were blocked by incubating in 5% non-fat dried milk (Marvel) in TBS-T for 1 hour at room temperature whilst shaking. Membranes were incubated with primary antibody diluted in either 5% Marvel or BSA, depending on antibody specification, overnight at 4° C. with gentle agitation. Primary antibody was recovered and stored at −20. Membranes were washed three times in TBS-T for 5 minutes and membranes were incubated with secondary antibody, diluted in 5% Marvel, for 1 hour at room temperature. Secondary antibody was removed and discarded, and excess secondary was removed from the membranes by three 5-minute washes in TBS-T.
All RT-PCR assays were carried out using the SensiFAST SYBR Hi-ROX Kit (Bioline) with primers designed using Primer-BLAST (NCBI). For each target a master-mix comprising of 4 μl SYBR Green mix, 0.5 μl of Forward primer (4 μM) and 0.5 μl of Reverse primer (4 μM) along and 3 μl of RNAse free H2O was prepared and mixed thoroughly by vortexing. 8 μl of master-mix was added to each well of a 0.1 mL MicroAMP® Fast 96-well Reaction Plate (Applied Biosystems), along with 2 μl of cDNA and sealed using Optical adhesive film (Applied Biosystems) and spun down for 30 seconds in a centrifuge fitted with microplate rotor (Eppendorf) before running. Plate were run using a QuantStudio 3 real-time PCR System (Applied Biosystems) or the StepOnePlus Real-Time PCR System (Applied Biosystems), with run conditions set as: 50° C. for 2 mins, 95° C. for 10 minutes, 40 cycles of 95° C. for 15 seconds then 60° C. for 1 minute. To assess the quality of Primers a melt-curve stage was added: 95° C. for 1 second, 60° C. for 20 seconds, 95° C. for 1 second. Data were analysed using the QuantStudio™ Design & Analysis software (Applied Biosystems) and using the comparative Ct (ΔΔCt) method where test samples were normalised to endogenous control (β-Actin) followed by normalising the ΔCt of test samples to sample control (untreated sample), then calculating 2^−ΔΔCt to find the relative fold change of test samples over sample control.

IL-36R = settings: HRMEC, VEGF treatment over timepoints

| Molecule | ZO-1 transcript (qPCR) [1] | mean difference in wound closure vs no treatment (xdiff) (HRMEC [2]; 8 hours post scratch) | mean difference in wound closure vs no treatment (xdiff) (HRMEC [2]; 24 hours post scratch) | HRMEC proliferation with increasing doses of VEGF (HRMEC [3]) | expression of tight junction protein occludin (occludin) | IL-36R expression (IL-36R) | rescue of VEGF mediated occludin inhibition (occludin; combination with VEGF, immunoblotting) |
| --- | --- | --- | --- | --- | --- | --- | --- |
| Cc1cccc(-c2[nH]ncc2-c2ccc3ncccc3n2)n1 [RepSox] | appeared unaffected | – | – | – | – | – | – |
| FGF: bFGF (50 ng/ml) used as positive control in scratch assay | – | −4.366 | −28.4 | – | – | – | – |
| VEGF | – | −9.35 | −12.25 | increase in proliferation up to 5 ng/ml | reduced expression of occludin | reduces IL-36R expression | – |
| B1 | – | – | – | – | reduced expression of occludin | – | does not rescue VEGF mediated occludin inhibition |
